Data as given in patent US11072588B2, “Barbituric acid derivatives comprising cationic and lipophilic groups” (UNIVERSITETET I TROMSØ—NORGES ARKTISKE UNIVERSITET, priority 2017, dated 2021).
In brackets after ≈: the same amount, converted by molar mass.

How the values were obtained:
P. aeruginosa 50692520 = assay: MIC, multi-resistant clinical isolate; type: cell-based, Pseudomonas aeruginosa
P. aeruginosa K34-73 = assay: MIC, multi-resistant clinical isolate; type: cell-based, Pseudomonas aeruginosa
P. aeruginosa K44-24 = assay: MIC, multi-resistant clinical isolate; type: cell-based, Pseudomonas aeruginosa
[1] = test system: Corynebacterium glutamicum ATCC 13032; assay: MIC assay, antibiotic susceptible reference strain; type: cell-based; conditions: Corynebacterium glutamicum, ATCC13032, read-out: Antimicrobial activity (MIC) C. g
Summary of the method: (§1)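 Broth microdilution followed CLSI M07-A9 with modifications: inoculum ~2.5-3×10^4 cells/mL in Mueller-Hinton broth, mixed 1:1 with test derivative, incubated 48 h at 35 °C. MIC was the lowest concentration giving no growth by OD600, tested in three parallels, with oxytetracycline as reference antibiotic.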

[2] = test system: Staphylococcus aureus ATCC 9144; assay: MIC assay, antibiotic susceptible reference strain; type: cell-based; conditions: Staphylococcus aureus, ATCC9144, read-out: Antimicrobial activity (MIC) S. a
Summary of the method: as §1

[3] = test system: Pseudomonas aeruginosa PA01, DSM 19880 (ATCC 15692); assay: MIC assay, antibiotic susceptible reference strain; type: cell-based; conditions: Pseudomonas aeruginosa, read-out: Antimicrobial activity (MIC) P. a
Summary of the method: as §1

[4] = test system: Escherichia coli ATCC 25922; assay: MIC assay, antibiotic susceptible reference strain; type: cell-based; conditions: Escherichia coli, ATCC25922, read-out: Antimicrobial activity (MIC) E. c
Summary of the method: as §1

E. coli 50639799 = assay: MIC, multi-resistant clinical isolate; type: cell-based, Escherichia coli
E. coli 50857972 = assay: MIC, multi-resistant clinical isolate; type: cell-based, Escherichia coli
E. coli 50676002 = assay: MIC, multi-resistant clinical isolate; type: cell-based, Escherichia coli
E. coli 50739822 = assay: MIC, multi-resistant clinical isolate; type: cell-based, Escherichia coli
E. coli 50579417 = assay: MIC, multi-resistant clinical isolate; type: cell-based, Escherichia coli
S. aureus NCTC 10442 = assay: MIC, multi-resistant clinical isolate; type: cell-based, Staphylococcus aureus
S. aureus strain WIS = assay: MIC, multi-resistant clinical isolate; type: cell-based, Staphylococcus aureus
S. aureus strain 85/2082 = assay: MIC, multi-resistant clinical isolate; type: cell-based, Staphylococcus aureus
S. aureus IHT 99040 = assay: MIC, multi-resistant clinical isolate; type: cell-based, Staphylococcus aureus
S. aureus N315 = assay: MIC, multi-resistant clinical isolate; type: cell-based, Staphylococcus aureus
E. faecium TUH50-22 = assay: MIC, multi-resistant clinical isolate; type: cell-based, Enterococcus faecium
E. faecium K36-18 = assay: MIC, multi-resistant clinical isolate; type: cell-based, Enterococcus faecium
E. faecium 50758899 = assay: MIC, multi-resistant clinical isolate; type: cell-based, Enterococcus faecium
E. faecium 50901530 = assay: MIC, multi-resistant clinical isolate; type: cell-based, Enterococcus faecium
E. faecium 50673722 = assay: MIC, multi-resistant clinical isolate; type: cell-based, Enterococcus faecium
S. epidermidis = assay: Anti-biofilm activity (inhibition of biofilm formation); type: cell-based; conditions: Staphylococcus epidermidis, read-out: Anti-biofilm IC50
[5] = test system: panel of 30 multi-resistant clinical isolates of Gram-positive and Gram-negative bacteria; assay: MIC screening, ranges over the panel of clinical isolates; type: cell-based; conditions: Enterococcus faecium, read-out: MIC values against the Gram-positive isolates of S. aurues and E. faecium
[6] = Escherichia coli, read-out: Antimicrobial activity (MIC)
[7] = Enterococcus faecium, read-out: Antimicrobial activity (MIC)

NCCCCN1C(=O)N(CCCCN)C(=O)C(Cc2ccc(F)c3ccccc23)(Cc2ccc(F)c3ccccc23)C1=O [7(v), 1,3-bis(4-aminobutyl)-5,5-bis((4-fluoronaphtalen-1-yl)methyl)pyrimidin-2,4,6(1H,3H,5H)-trione]
MIC (P. aeruginosa 50692520; Pseudomonas aeruginosa, read-out: Antimicrobial activity (MIC)): 16 µg/mL (≈ 27.3 µM)
selectivity index (EC50/MIC) (P. aeruginosa 50692520; RBC EC50 / MIC): (10)
MIC (P. aeruginosa K34-73; Pseudomonas aeruginosa, K3473, read-out: Antimicrobial activity (MIC)): 32 µg/mL (≈ 54.5 µM)
selectivity index (EC50/MIC) (P. aeruginosa K34-73; RBC EC50 / MIC, P. aeruginosa K34-73): (5)
MIC (P. aeruginosa K44-24; Pseudomonas aeruginosa, K4424, read-out: Antimicrobial activity (MIC)): 32 µg/mL (≈ 54.5 µM)
selectivity index (EC50/MIC) (P. aeruginosa K44-24; RBC EC50 / MIC): (5)
MIC [1]: 1 µg/mL (≈ 1.7 µM)
MIC [2]: 4 µg/mL (≈ 6.82 µM)
MIC [3]: 8 µg/mL (≈ 13.6 µM)
MIC [4]: 16 µg/mL (≈ 27.3 µM)
MIC (E. coli 50639799; [6]): 16 µg/mL (≈ 27.3 µM)
selectivity index (EC50/MIC) (E. coli 50639799; RBC EC50 / MIC): (10)
MIC (E. coli 50857972; [6]): 16 µg/mL (≈ 27.3 µM)
selectivity index (EC50/MIC) (E. coli 50857972; RBC EC50 / MIC): (10)
MIC (E. coli 50676002; Escherichia coli, 50676002, read-out: Antimicrobial activity (MIC)): 16 µg/mL (≈ 27.3 µM)
selectivity index (EC50/MIC) (E. coli 50676002; RBC EC50 / MIC, E. coli 50676002): (10)
MIC (E. coli 50739822; [6]): 16 µg/mL (≈ 27.3 µM)
selectivity index (EC50/MIC) (E. coli 50739822; RBC EC50 / MIC): (10)
MIC (E. coli 50579417; [6]): 16 µg/mL (≈ 27.3 µM)
selectivity index (EC50/MIC) (E. coli 50579417; RBC EC50 / MIC): (10)
selectivity index (EC50/MIC) (S. aureus NCTC 10442; RBC EC50 / MIC, S. aureus NCTC 10442): (20)
MIC (S. aureus NCTC 10442; Staphylococcus aureus, NCTC10442, read-out: Antimicrobial activity (MIC)): 8 µg/mL (≈ 13.6 µM)
selectivity index (EC50/MIC) (S. aureus strain WIS; RBC EC50 / MIC, S. aureus strain WIS): (20)
MIC (S. aureus strain WIS; Staphylococcus aureus, read-out: Antimicrobial activity (MIC)): 8 µg/mL (≈ 13.6 µM)
selectivity index (EC50/MIC) (S. aureus strain 85/2082; RBC EC50 / MIC, S. aureus strain 85/2082): (40)
MIC (S. aureus strain 85/2082; Staphylococcus aureus, 85/2082, read-out: Antimicrobial activity (MIC)): 4 µg/mL (≈ 6.82 µM)
selectivity index (EC50/MIC) (S. aureus IHT 99040; RBC EC50 / MIC): (20)
MIC (S. aureus IHT 99040; Staphylococcus aureus, IHT99040, read-out: Antimicrobial activity (MIC)): 8 µg/mL (≈ 13.6 µM)
selectivity index (EC50/MIC) (S. aureus N315; RBC EC50 / MIC, S. aureus N315): (20)
MIC (S. aureus N315; Staphylococcus aureus, N315, read-out: Antimicrobial activity (MIC)): 8 µg/mL (≈ 13.6 µM)
MIC (E. faecium TUH50-22; Enterococcus faecium, TUH5022, read-out: Antimicrobial activity (MIC)): 4 µg/mL (≈ 6.82 µM)
selectivity index (EC50/MIC) (E. faecium TUH50-22; RBC EC50 / MIC): (40)
MIC (E. faecium K36-18; Enterococcus faecium, K3618, read-out: Antimicrobial activity (MIC)): 8 µg/mL (≈ 13.6 µM)
selectivity index (EC50/MIC) (E. faecium K36-18; RBC EC50 / MIC, E. faecium K36-18): (20)
MIC (E. faecium 50758899; [7]): 8 µg/mL (≈ 13.6 µM)
selectivity index (EC50/MIC) (E. faecium 50758899; RBC EC50 / MIC): (20)
MIC (E. faecium 50901530; [7]): 4 µg/mL (≈ 6.82 µM)
selectivity index (EC50/MIC) (E. faecium 50901530; RBC EC50 / MIC): (40)
MIC (E. faecium 50673722; [7]): 8 µg/mL (≈ 13.6 µM)
selectivity index (EC50/MIC) (E. faecium 50673722; RBC EC50 / MIC): (20)
IC50 (S. epidermidis): 4 µg/mL (≈ 6.82 µM)
MIC [5]: 4 to 16 µg/mL (≈ 6.82 to 27.3 µM)
